Test results reported in patent US20020088018A1, “Transgenic mice containing MAS orphan receptor gene disruptions” (priority 2000, published 2002).

Tested on: mice (wild-type and MAS receptor gene homozygous mutant)
Test: Metrazol administration test (metrazol dose testing, seizure susceptibility)
Assay type: in vivo, mouse
Conditions: for Dose (mg/kg body weight), Observable: T/C / Dose (mg/kg body weight), Observable: Death / Dose (mg/kg body weight), Observable: Twitch / Dose (mg/kg body weight), Observable: Extension: F2N1 mice; for Dose (mg/kg body weight), Observable: T/C: metrazol dose to T/C seizure; for Dose (mg/kg body weight), Observable: Death: metrazol dose to death; for Dose (mg/kg body weight), Observable: Twitch: metrazol dose to first twitch; for Dose (mg/kg body weight), Observable: Extension: metrazol dose to tonic extension
Experimental: A metrazol administration test can be used to screen animals for varying susceptibilities to seizures or similar events. For example, a 5 mg/ml solution of metrazol can be infused through the tail vein of a mouse at a rate of, e.g., approximately 0.375 ml/min. The infusion will cause all mice to experience seizures, followed by death. Those mice that enter the seizure stage the soonest are believed to be more prone to seizures.
The transgenic mice were analyzed for phenotypic changes. […] These characteristics response parameters are: (1) first twitch; (2) tonic/clonic seizure; (3) tonic extension, […]; and (4) death.

[1] = genotype −/− (MAS homozygous mutant)

Structure (SMILES): C1CCc2nnnn2CC1 [metrazol]
- Dose (mg/kg body weight), Observable: T/C (genotype +/+ (wild-type)): 37.94 mg/kg body weight
- Dose (mg/kg body weight), Observable: Death (genotype +/+ (wild-type)): 96.27 mg/kg body weight
- Dose (mg/kg body weight), Observable: Twitch (genotype +/+ (wild-type)): 25.59 mg/kg body weight
- Dose (mg/kg body weight), Observable: Extension (genotype +/+ (wild-type)): 75.60 mg/kg body weight
- Dose (mg/kg body weight), Observable: T/C [1]: 45.28 mg/kg body weight
- Dose (mg/kg body weight), Observable: Death [1]: 138.55 mg/kg body weight
- Dose (mg/kg body weight), Observable: Twitch [1]: 33.95 mg/kg body weight
- Dose (mg/kg body weight), Observable: Extension [1]: 115.89 mg/kg body weight
- response threshold to metrazol (homozygous mutants as compared to wild-type animals): increased
